Reference: patent publication US6441011B1, “Combined preparation consisting of 2-methylthiazolidine-2,4-dicarboxylic acid and paracetamol” (priority 1997, dated 2002)
Marks after values point to notes of the source that are not given here.

Tests used:
mice [1] = assay: Time-dosage dependency: GSH in hepatic tissue after CP injection; type: in vivo; settings: for GSH % of control / GSH: mice
mice [2] = assay: Paracetamol liver damage and pre-treatment with CP: indicator substances in hepatic tissue and blood; type: in vivo; settings: for Cysteine / Cystine / Glycogen / Non-protein SH / Oxygen radicals / Protein SH / Total SH / AlAT / AspAT: CP 1.2 mmol/kg pre-treatment, 12 h later paracetamol 600 mg/kg i.p. or control solution; for Cysteine / Cystine / Glycogen / Non-protein SH / Oxygen radicals / Protein SH / Total SH: tissue after another 3 h; for AlAT / AspAT: blood serum, blood after another 3 h; for concentration of oxygen radicals / concentration of sulfhydryl groups / free cysteines in the hepatic tissue / glycogen in the hepatic tissue / enzymes in the blood serum released from the liver (AlAT, AspT): paracetamol 600 mg/kg single dose, CP pre-treatment 1.2 mmol/kg; for enzymes in the blood serum released from the liver (AlAT, AspT): within 3 hours
Protocol: (§1) The mice were pre-treated using 1.2 mmol CP/kg, and 12 hours later they were treated with the control solution or 600 mg of paracetamol/kg of body weight i.p. Hepatic tissue and blood were extracted after another 3 hours, and the indicator substances were measured.

Hep G2 cells = assay: Cytotoxicity of paracetamol and protective action of CP on permanent hepatic cell line; type: cell-based
Protocol: The cells were kept for 10 days in a medium that contained paracetamol (1 mM). […] The concentrations of the indicator substances were measured at the end of the period of exposure (Table 3). […] It is therefore recommended to choose higher AA concentrations for later experiments.

mice [3] = assay: Toxic effects of CP under in-vivo conditions; settings: up to a dose of 2.4 mmol CP/kg of body weight
Protocol: as §1

[4] = CP 1.2 mmol/kg, 8 h after injection
[5] = CP 2.4 mmol/kg, 4 h after injection
[6] = Hep G2 cells, 10 days, AA 1 mM, simultaneous CP 2 mM
[7] = Hep G2 cells, 10 days, AA 1 mM, CP 2 mM

Structure (SMILES)	Cysteine (mice [2])	Cystine (mice [2])	Glycogen (mice [2])	Non-protein SH (mice [2])	Oxygen radicals (mice [2])	Protein SH (mice [2])	Total SH (mice [2])	AlAT (mice [2])	AspAT (mice [2])	concentration of oxygen radicals (mice [2])	concentration of sulfhydryl groups (mice [2])	free cysteines in the hepatic tissue (mice [2])	glycogen in the hepatic tissue (mice [2])	enzymes in the blood serum released from the liver (AlAT, AspT) (mice [2])	L-cysteine and cystine concentrations (Hep G2 cells; [6])	free radicals (Hep G2 cells; [6])	other results
CC1(C(=O)O)NC(C(=O)O)CS1 (centres unmarked) [CP, 2-methyl-thiazolidine-2,4-dicarboxylic acid]	0.240^a ± μmol/g wet weight of the liver	0.020^a ± μmol/g wet weight of the liver	12.59 ± 0.21 mg/g wet weight of the liver	3.81^a ± μmol/g wet weight of the liver	0.120^a ± μmol/g wet weight of the liver	13.27^a ± μmol/g wet weight of the liver	17.08^a ± μmol/g wet weight of the liver	20 units/l	199 units/l	significantly reduced	reduced the decrease	significantly increased	significantly increased	suppressed the increase	more than compensated	prevented	increase of glutathione concentration in the hepatic tissue (mice [1]; after 12 hours, 1.2 or 2.4 mmol/kg of body weight): could still be detected; GSH % of control (mice [1]; CP 1.2 mmol/kg, 1 h after injection): 117.5 % of control; GSH % of control (mice [1]; CP 1.2 mmol/kg, 4 h after injection): 87.2 % of control; GSH (mice [1]; [4]): 6.48 ± 0.67 μmol/g of wet weight; GSH % of control (mice [1]; [4]): 108.5 % of control; GSH % of control (mice [1]; CP 1.2 mmol/kg, 12 h after injection): 122.0 % of control; GSH % of control (mice [1]; CP 2.4 mmol/kg, 1 h after injection): 127.6 % of control; GSH (mice [1]; [5]): 5.76 ± 0.42 μmol/g of wet weight; GSH % of control (mice [1]; [5]): 90.3 % of control; GSH % of control (mice [1]; CP 2.4 mmol/kg, 8 h after injection): 112.0 % of control; GSH % of control (mice [1]; CP 2.4 mmol/kg, 12 h after injection): 154.5 % of control; glutathione concentration in the hepatic tissue (mice [1]; within one hour post application of 1.2 or 2.4 mmol/kg of body weight): rose considerably; effect against high concentrations of paracetamol in the hepatic cell model (Hep G2 cells; Hep G2 cell culture): protective effect; toxic effects (mice [3]): no toxic effects
CC(=O)Nc1ccc(O)cc1 [Paracetamol, paracetamol]	0.062^a ± μmol/g wet weight of the liver	0.025^a ± μmol/g wet weight of the liver	8.45^a ± mg/g wet weight of the liver	0.22^a ± μmol/g wet weight of the liver	0.317^a ± μmol/g wet weight of the liver	12.34 ± 0.20 μmol/g wet weight of the liver	12.56^a ± μmol/g wet weight of the liver	682 units/l	855 units/l	increased	dropped dramatically	dropped dramatically	dropped dramatically	enormous increase	dropped slightly	increase	concentrations of the other indicator substances (Hep G2 cells; Hep G2 cells, 10 days, AA 1 mM): remained unchanged; Cysteine (Hep G2 cells; [7]): 3.68 nmol/mg Protein; Cystine (Hep G2 cells; [7]): 0.130 nmol/mg Protein; GSH (Hep G2 cells; [7]): 14.9 nmol/mg Protein; Glutamine synthetase (Hep G2 cells; [7]): 0.41 units/mg protein; LDH (Hep G2 cells; [7]): 1.88 units/mg protein; NPSH (Hep G2 cells; [7]): 18.90 nmol/mg Protein; free radicals (Hep G2 cells; [7]): 0.210 nmol/mg Protein; number of cells (Hep G2 cells; [7]): 6 × 10^8 cells; vital cells (Hep G2 cells; [7]): 94% vital
